Test results from PubChem BioAssay (NCI).
Where “and” joins values, the source holds several entries; their conditions need not be identical. Equal entries are not always repeated.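 These data come from cells grown in 96-well plates and exposed to compound for 48 hours at five concentrations. At the GI50, growth is halved. TGI marks complete inhibition of growth.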

Legend:
Assay in all cases: NCI tumour cell line growth inhibition, 48 h
M19-MEL melanoma = system: M19-MEL melanoma
OVCAR-8 ovarian = system: OVCAR-8 ovarian
NCI-H226 lung = system: NCI-H226 lung
HOP-92 NSCLC = system: HOP-92 NSCLC
DLD-1 colon = system: DLD-1 colon
HL-60(TB) leukemia = system: HL-60(TB) leukemia
NCI-H23 lung = system: NCI-H23 lung
HOP-62 NSCLC = system: HOP-62 NSCLC
OVCAR-3 ovarian = system: OVCAR-3 ovarian
SK-MEL-5 melanoma = system: SK-MEL-5 melanoma

| Structure (SMILES) | TGI (M19-MEL melanoma) [µM] | TGI (OVCAR-8 ovarian) [µM] | TGI (NCI-H226 lung) [µM] | TGI (HOP-92 NSCLC) | TGI (DLD-1 colon) | TGI (HL-60(TB) leukemia) | TGI (NCI-H23 lung) [µM] | TGI (HOP-62 NSCLC) | TGI (OVCAR-3 ovarian) [µM] | TGI (SK-MEL-5 melanoma) | GI50 (SK-MEL-5 melanoma) [µM] | GI50 (M19-MEL melanoma) [µM] | GI50 (OVCAR-8 ovarian) [µM] | GI50 (NCI-H226 lung) [µM] | GI50 (DLD-1 colon) [µM] | GI50 (HL-60(TB) leukemia) [nM] | GI50 (OVCAR-3 ovarian) [µM] | GI50 (NCI-H23 lung) [µM] | GI50 (HOP-62 NSCLC) | GI50 (HOP-92 NSCLC) [nM] |
| --- | --- | --- | --- | --- | --- | --- | --- | --- | --- | --- | --- | --- | --- | --- | --- | --- | --- | --- | --- | --- |
| O=C(c1nc2ccc(Cl)cc2[nH]c1=O)C(O)c1ccc2c(c1)OCO2 (centres undefined) | > 100 | > 100 | > 100 | > 100 µM | > 100 µM | > 100 µM | > 100 | > 100 µM | – | – | – | – | – | – | – | – | – | – | – | – |
| CC(=O)c1ccc(NC(=O)C(=O)C(C(=O)c2ccc(Cl)c(Cl)c2)C2OC(=O)c3ccccc32)cc1 (centres undefined) | – | 27.6 | 24.6 | 78.4 µM | 55.8 µM | > 100 µM | 32.2 | 45.3 µM | 42.6 | – | – | – | – | – | – | – | – | – | – | – |
| COC1OC(COS(=O)(=O)c2ccc(C)cc2)C(O)C(OS(=O)(=O)c2ccc(C)cc2)C1OS(=O)(=O)c1ccc(C)cc1 (centres undefined) | > 100 | > 100 | > 100 | – | > 100 µM | > 100 µM | > 100 | > 100 µM | > 100 | > 100 µM | – | – | – | – | – | – | – | – | – | – |
| CC1=CC(=O)c2c(C=O)c(O)c(O)c(C(C)C)c2C1=O | > 100 | > 56.5 | 54.8 | 45.5 µM | > 68.4 µM | > 79.5 µM | > 85.5 | > 100 µM | – | 65 µM | – | – | – | – | – | – | – | – | – | – |
| Cc1ccc(C(=O)C#Cc2c[nH]c(=O)[nH]c2=O)cc1 | 36.5 | 25.1 | 34.5 | 33.3 µM | 22.1 µM | 35.1 µM | 39.6 | 87.7 µM | 29.8 | 26.5 µM | – | – | – | – | – | – | – | – | – | – |
| COc1cc(Nc2nc3cc(C(F)(F)F)ccc3nc2-c2ccccc2)cc(OC)c1OC | – | > 100 | > 100 | 20.7 µM | > 100 µM | > 100 µM | > 100 | 94.6 µM | > 100 | > 100 µM | – | – | – | – | – | – | – | – | – | – |
| CCOC(=O)C(C(=O)OCC)=C1N[C@H](C(=O)OCC)CS1 | > 100 | > 100 | > 100 | – | > 100 µM | > 100 µM | > 100 | > 100 µM | > 100 | > 100 µM | – | – | – | – | – | – | – | – | – | – |
| COc1ccc(C(=O)CC(=O)C(=O)Nc2ccc(C)c(C)c2)cc1 | > 100 | > 100 | > 100 | > 100 µM | > 100 µM | > 64.3 µM | > 100 | > 100 µM | > 100 | > 100 µM | – | – | – | – | – | – | – | – | – | – |
| O=C(O)c1cccc2cccc(C(=O)O)c12.[Hg] | 23.3 | 46.2 | 40.7 | – | 23 µM | 42.2 µM | 29.9 | 35.3 µM | 30 | 27 µM | 14 | 10.4 | 20.5 | 21.1 | 8.42 | 19300 | 15.3 | 15.7 | 20.8 µM | – |
| COc1ccc(-c2cc(-c3cc(C)ccc3O)[nH]c(=O)n2)cc1 | > 100 | > 100 | > 100 | > 100 µM | > 100 µM | > 100 µM | > 100 | 76.4 µM | > 100 | – | – | – | – | – | – | – | – | – | – | – |
| CCCc1nc(NC#N)nc(C(=O)NC23CC4CC(CC(C4)C2)C3)c1C | > 100 | > 100 | > 100 | > 100 µM | > 100 µM | > 100 µM | > 100 | > 100 µM | > 100 | > 100 µM | – | – | – | – | – | – | – | – | – | – |
| NCCCNCCSSC/C=C\CSSCCNCCCN | > 100 | > 100 | – | 86.3 µM and 84.5 µM | > 100 µM | 46.4 µM and 39.1 µM | > 100 | > 100 µM and 93.4 µM | > 100 | > 100 µM | – | – | – | – | – | – | – | – | > 100 µM and 33.2 µM | – |
| COc1ccc(NC(=O)CC(=O)N2N=C(N(CCC#N)c3cccc(C)c3)CC2c2ccccc2)cc1 (centres undefined) | > 100 | > 100 | > 100 | > 100 µM | > 100 µM | > 100 µM | > 100 | > 100 µM | > 100 | > 100 µM | – | – | – | – | – | – | – | – | – | – |
| CSC1=Nc2c(c(C)c(C)n2COC(CO)CO)C2=NC(=O)CC(C)N12 (centres undefined) | – | > 100 | > 100 | > 100 µM | – | > 100 µM | > 100 | > 100 µM | > 100 | > 100 µM | > 100 | – | > 100 | > 100 | – | 86.4 | > 100 | > 100 | > 100 µM | > 100000 |
| O=NN/C(=C1\Nc2ccc([N+](=O)[O-])cc2NC1=O)C(O)c1ccc([N+](=O)[O-])cc1 (centres undefined) | > 100 | > 100 | > 100 | > 100 µM | > 100 µM | > 100 µM | > 100 | > 100 µM | > 100 | > 100 µM | – | – | – | – | – | – | – | – | – | – |
| CC(C(=O)O)/C(=C\c1ccc2c(c1)OCO2)C(=O)O (centres undefined) | > 100 | > 100 | > 100 | > 100 µM | > 100 µM | 0.21 µM | > 100 | > 100 µM | > 100 | > 100 µM | – | – | – | – | – | – | – | – | – | – |
| COC1=C2C[C@@H](C)C[C@@H](OC)[C@@H](O)[C@H](C)/C=C(\C)[C@@H](OC(N)=O)[C@H](OC)/C=C\C=C(/C)C(=O)NC(=CC1=O)C2=O | – | – | – | – | 9.63 µM and 3.15 µM | – | – | – | – | 8.59 µM [middle of 4 runs] | – | – | – | – | 0.131 | – | – | – | – | – |
| COc1ccc(OC)c(/C=C2\COc3ccc(O)c(O)c3C2=O)c1 | – | 27 | 36.8 | 8.86 µM | – | 16.1 µM | 7.3 | 24.5 µM | 5.31 | 3.28 µM | 1.75 | – | 3.05 | 6.76 | – | 1420 | 1.36 | 2.44 | 8.63 µM | 2800 |
